Experiments:
bedstraw = assay: Test B pre/postemergence bedstraw; assay type: in vivo, Galium aparine
Outline: (§1)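 Response is a visual 0-to-10 score relative to untreated plants, where 0 means no effect and 10 means complete control, taken twelve to sixteen days after application. Treatments went onto soil at planting and onto foliage of 1- to 4-leaf plants, using a surfactant-containing non-phytotoxic solvent.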

blackgrass = assay: Test B pre/postemergence blackgrass; assay type: in vivo, Alopecurus myosuroides
Outline: as §1

surinam grass = assay: Test B pre/postemergence surinam grass; assay type: in vivo, Brachiaria decumbens
Outline: as §1

cocklebur = assay: Test B pre/postemergence cocklebur; assay type: in vivo, Xanthium strumarium
Outline: as §1

corn = assay: Test B pre/postemergence corn; assay type: in vivo, Zea mays
Outline: as §1

crabgrass = assay: Test B pre/postemergence crabgrass; assay type: in vivo, Digitaria sanguinalis
Outline: as §1

giant foxtail = assay: Test B pre/postemergence giant foxtail; assay type: in vivo, Setaria faberii
Outline: as §1

morningglory = assay: Test B pre/postemergence morningglory; assay type: in vivo, Ipomoea hederacea
Outline: as §1

pigweed = assay: Test B pre/postemergence pigweed; assay type: in vivo, Amaranthus retroflexus
Outline: as §1

rape = assay: Test B pre/postemergence rape; assay type: in vivo, Brassica napus
Outline: as §1

soybean = assay: Test B pre/postemergence soybean; assay type: in vivo, Glycine max; conditions: Preemergence
Outline: as §1

sugar beet = assay: Test B pre/postemergence sugar beet; assay type: in vivo, Beta vulgaris; conditions: Preemergence
Outline: as §1

velvetleaf = assay: Test B pre/postemergence velvetleaf; assay type: in vivo, Abutilon theophrasti; conditions: Preemergence
Outline: as §1

wheat = assay: Test B pre/postemergence wheat; assay type: in vivo, Triticum aestivum; conditions: Preemergence
Outline: as §1

wild oat = assay: Test B pre/postemergence wild oat; assay type: in vivo, Avena fatua; conditions: Preemergence
Outline: as §1

purple nutsedge = assay: Test B pre/postemergence purple nutsedge; assay type: in vivo, Cyperus rotundus
Outline: as §1

rice = assay: Test B flood test rice; assay type: in vivo, Oryza sativa
Outline: (§2)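 Each value is a visual injury score relative to controls, with 10 meaning complete control and 0 no effect. Evaluation took place twelve to sixteen days after the 2-leaf-stage plants were treated and kept in the greenhouse.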

smallflower flatsedge = assay: Test B flood test smallflower flatsedge; assay type: in vivo, Cyperus difformis
Outline: as §2

duck salad = assay: Test B flood test duck salad; assay type: in vivo, Heteranthera limosa
Outline: as §2

bamyardgrass = assay: Test B flood test barnyardgrass; assay type: in vivo, Echinochloa crus-galli
Outline: as §2

[1] = Preemergence, Rate 31 g/ha, visual rating, scale 0 to 10 (0 no effect, 10 complete control)
[2] = Preemergence, Rate 62 g/ha, scale of 0 to 10 where 0 is no effect and 10 is complete control
[3] = Preemergence, Rate 250 g/ha, scale of 0 to 10 where 0 is no effect and 10 is complete control
[4] = Rate 31 g/ha, Postemergence, scale 0 to 10
[5] = Rate 62 g/ha, Postemergence, scale of 0 to 10 where 0 is no effect and 10 is complete control
[6] = Rate 125 g/ha, Postemergence, scale 0 to 10
[7] = Rate 125 g/ha, Preemergence, scale of 0 to 10 where 0 is no effect and 10 is complete control
[8] = Rate 31 g/ha, visual rating, scale 0 to 10 (0 no effect, 10 complete control)
[9] = Rate 62 g/ha, scale of 0 to 10 where 0 is no effect and 10 is complete control
[10] = Rate 250 g/ha, scale of 0 to 10 where 0 is no effect and 10 is complete control
[11] = Rate 125 g/ha, scale of 0 to 10 where 0 is no effect and 10 is complete control
[12] = Rate 62 g/ha, headed Pre-emergence (flood test species), scale 0 to 10 (0 no effect, 10 complete control)
[13] = Rate 125 g/ha, Pre-emergence, flood test species, scale 0 to 10 where 0 is no effect and 10 is complete control
[14] = Rate 250 g/ha, Pre-emergence, flood-test species, scale 0 to 10, 0 is no effect, 10 is complete control
[15] = Rate 500 g/ha, Pre-emergence, flood test species, scale 0 to 10 (0 no effect, 10 complete control)

C=C(Cn1c(=O)on(C(=O)N(c2ccc(F)cc2)C(C)C)c1=O)C[Si](C)(C)C [Compound 256]
Bedstraw plant response rating (bedstraw; [1]): 0 | Bedstraw plant response rating (bedstraw; [2]): 0 | Bedstraw plant response rating (bedstraw; [3]): 0 | Bedstraw plant response rating (bedstraw; [4]): 0 | Bedstraw plant response rating (bedstraw; [5]): 0 | Bedstraw plant response rating (bedstraw; [6]): 0 | Bedstraw plant response rating (bedstraw; [7]): 0 | Plant response rating (0 to 10; 0 is no effect, 10 is complete control), Bedstraw (bedstraw; Rate 250 g/ha, Postemergence): 0 | Blackgrass plant response rating (blackgrass; [1]): 0 | Blackgrass plant response rating (blackgrass; [2]): 0 | Blackgrass plant response rating (blackgrass; [3]): 0 | Blackgrass plant response rating (blackgrass; [4]): 0 | Blackgrass plant response rating (blackgrass; [5]): 0 | Blackgrass plant response rating (blackgrass; [6]): 0 | Blackgrass plant response rating (blackgrass; [7]): 0 | Plant response rating (0 to 10; 0 is no effect, 10 is complete control), Blackgrass (blackgrass; Rate 250 g/ha, Postemergence): 0 | B. signalgrass plant response rating (surinam grass; [1]): 0 | B. signalgrass plant response rating (surinam grass; [2]): 0 | B. signalgrass plant response rating (surinam grass; [3]): 0 | B. signalgrass plant response rating (surinam grass; [4]): 0 | B. signalgrass plant response rating (surinam grass; [5]): 0 | B. signalgrass plant response rating (surinam grass; Rate 125 g/ha, Postemergence, scale 0 (no effect) to 10 (complete control)): 0 | B. signalgrass plant response rating (surinam grass; [7]): 0 | Plant response rating (0 to 10; 0 is no effect, 10 is complete control), B. signalgrass (surinam grass; Rate 250 g/ha, Postemergence): 0 | Cocklebur plant response rating (cocklebur; [1]): 0 | Cocklebur plant response rating (cocklebur; [2]): 0 | Cocklebur plant response rating (cocklebur; [3]): 0 | Cocklebur plant response rating (cocklebur; [4]): 0 | Cocklebur plant response rating (cocklebur; [5]): 0 | Cocklebur plant response rating (cocklebur; [6]): 0 | Cocklebur plant response rating (cocklebur; [7]): 0 | Plant response rating (0 to 10; 0 is no effect, 10 is complete control), Cocklebur (cocklebur; Rate 250 g/ha, Postemergence): 0 | Corn plant response rating (corn; [1]): 0 | Corn plant response rating (corn; [2]): 0 | Corn plant response rating (corn; [3]): 0 | Corn plant response rating (corn; [4]): 0 | Corn plant response rating (corn; [5]): 0 | Corn plant response rating (corn; [6]): 0 | Corn plant response rating (corn; [7]): 0 | Plant response rating (0 to 10; 0 is no effect, 10 is complete control), Corn (corn; Rate 250 g/ha, Postemergence): 0 | Crabgrass plant response rating (crabgrass; [1]): 0 | Crabgrass plant response rating (crabgrass; [2]): 0 | Crabgrass plant response rating (crabgrass; [3]): 2 | Crabgrass plant response rating (crabgrass; [4]): 0 | Crabgrass plant response rating (crabgrass; [7]): 2 | Plant response rating (0 to 10; 0 is no effect, 10 is complete control), Crabgrass (crabgrass; Rate 250 g/ha, Postemergence): 1 | Giant foxtail plant response rating (giant foxtail; [1]): 0 | Giant foxtail plant response rating (giant foxtail; [2]): 0 | Giant foxtail plant response rating (giant foxtail; [3]): 9 | Giant foxtail plant response rating (giant foxtail; [4]): 0 | Giant foxtail plant response rating (giant foxtail; [7]): 5 | Plant response rating (0 to 10; 0 is no effect, 10 is complete control), Giant foxtail (giant foxtail; Rate 250 g/ha, Postemergence): 0 | Morningglory plant response rating (morningglory; [1]): 0 | Morningglory plant response rating (morningglory; [2]): 0 | Morningglory plant response rating (morningglory; [3]): 0 | Morningglory plant response rating (morningglory; [4]): 6 | Morningglory plant response rating (morningglory; [7]): 0 | Redroot pigweed plant response rating (pigweed; [1]): 0 | Redroot pigweed plant response rating (pigweed; [2]): 0 | Redroot pigweed plant response rating (pigweed; [3]): 0 | Redroot pigweed plant response rating (pigweed; [4]): 0 | Redroot pigweed plant response rating (pigweed; [7]): 0 | Plant response rating (0 to 10; 0 is no effect, 10 is complete control), Redroot pigweed (pigweed; Rate 250 g/ha, Postemergence): 4 | Rape plant response rating (rape; [1]): 0 | Rape plant response rating (rape; [2]): 0 | Rape plant response rating (rape; [3]): 0 | Rape plant response rating (rape; [4]): 0 | Rape plant response rating (rape; [7]): 0 | Plant response rating (0 to 10; 0 is no effect, 10 is complete control), Rape (rape; Rate 250 g/ha, Postemergence): 2 | Soybean plant response rating (soybean; [8]): 0 | Soybean plant response rating (soybean; [9]): 0 | Soybean plant response rating (soybean; [10]): 0 | Soybean plant response rating (soybean; [11]): 0 | Sugarbeets plant response rating (sugar beet; [8]): 0 | Sugarbeets plant response rating (sugar beet; [9]): 0 | Sugarbeets plant response rating (sugar beet; [10]): 0 | Sugarbeets plant response rating (sugar beet; [11]): 0 | Velvetleaf plant response rating (velvetleaf; [8]): 0 | Velvetleaf plant response rating (velvetleaf; [9]): 0 | Velvetleaf plant response rating (velvetleaf; [10]): 0 | Velvetleaf plant response rating (velvetleaf; [11]): 0 | Wheat plant response rating (wheat; [8]): 0 | Wheat plant response rating (wheat; [9]): 0 | Wheat plant response rating (wheat; [10]): 0 | Wheat plant response rating (wheat; [11]): 0 | Wild oats plant response rating (wild oat; [8]): 0 | Wild oats plant response rating (wild oat; [9]): 0 | Wild oats plant response rating (wild oat; [10]): 0 | Wild oats plant response rating (wild oat; [11]): 0 | Nutsedge plant response rating (purple nutsedge; [3]): 0 | Nutsedge plant response rating (purple nutsedge; [4]): 0 | Plant response rating (0 to 10; 0 is no effect, 10 is complete control), Nutsedge (purple nutsedge; Rate 250 g/ha, Postemergence): 0 | Rice plant response rating (rice; [12]): 0 | Rice plant response rating (rice; [13]): 0 | Rice plant response rating (rice; [14]): 0 | Rice plant response rating (rice; [15]): 0 | S. Flatsedge plant response rating (smallflower flatsedge; [12]): 0 | S. Flatsedge plant response rating (smallflower flatsedge; [13]): 0 | S. Flatsedge plant response rating (smallflower flatsedge; [14]): 0 | S. Flatsedge plant response rating (smallflower flatsedge; [15]): 0 | Ducksalad plant response rating (duck salad; [12]): 0 | Ducksalad plant response rating (duck salad; [13]): 0 | Ducksalad plant response rating (duck salad; [14]): 0 | Ducksalad plant response rating (duck salad; [15]): 0 | Barnyardgrass plant response rating (bamyardgrass; [12]): 0 | Barnyardgrass plant response rating (bamyardgrass; [13]): 0 | Barnyardgrass plant response rating (bamyardgrass; [14]): 0 | Barnyardgrass plant response rating (bamyardgrass; [15]): 0
